Patent US20220249404A1 (Nanjing Ruiying Runze Biopharmaceutical Technology Co., Inc., priority 2019, published 2022)
Where two headings read alike, the source gives them in different places.

Assays:
zebrafish [1] = assay: melanin content / effective rate on melanogenesis in zebrafish (NaOH lysis method); type: in vivo; conditions: for efficacy of Flu (%): calculated using Formula 1; for efficacy of Cal (%): calculated using Formula 3
tyrosinase = tyrosinase activity of zebrafish (L-DOPA oxidation method); type: in vivo
normal mice = conditions: oral administration, 20 mg/kg; cited from earlier work
C57BL/6 mice = conditions: oral administration, 2.6 mg/kg, stress-induced; cited from earlier work
B16F10 cells = conditions: cited from earlier work
[2] = test system: normal human skin melanocytes; conditions: cited from earlier work
[3] = long term oral administration, 20 mg/day; cited from earlier work
zebrafish [4] = assay: survival rate of zebrafish (PTU35h embryos, drugs alone or in combination); conditions: for effect on survival rate of zebrafish: used alone; for IC50: Danio rerio, 25 h, read-out: IC50 (survival rate of zebrafish)
normal melanocytes = conditions: 10^−9-10^−5 mol/L; cited from earlier work
zebrafish [5] = conditions: in vivo
[6] = 0.2 mM PTU35h treatment group compared with normal control group
[7] = 0.005-1.28 μg/ml, compared with PTU35h treatment group

For `CNCCC(Oc1ccc(C(F)(F)F)cc1)c1ccccc1` (racemic) [fluoxetine], the “melanin content in zebrafish” value (zebrafish [1]; 6.4-25.6 μg/ml, compared with PTU35h treatment group) was “increase the melanin content in zebrafish in a dose-dependent manner”, the “effective rate (%) on melanogenesis in zebrafish” value (from here on “effective rate (%)”) (zebrafish [1]; Flu alone 0.1 μg/ml) was 4.962% and the “effective rate (%)” value (zebrafish [1]; Flu alone 0.1 μg/ml, listed as Flu) was 4.5%. For the same molecule, the “effective rate (%)” value (zebrafish [1]; Flu alone 0.4 μg/ml) was 6.564%, the “effective rate (%)” value (zebrafish [1]; Flu alone 1.6 μg/ml) was 10.260% and the “effective rate (%)” value (zebrafish [1]; Flu alone 1.6 μg/ml, listed as Flu) was 10.26%. For the same molecule, the “effective rate (%)” value (zebrafish [1]; Flu alone 6.4 μg/ml) was 25.804%, the “effective rate (%)” value (zebrafish [1]; Flu alone 25.6 μg/ml) was 26.536% and the “efficacy of Flu (%)” value (zebrafish [1]; listed as Flu 0.1 μg/ml) was 3.151%. The “efficacy of Flu (%)” value (zebrafish [1]; listed as Flu 0.4 μg/ml) was 3.218%, the “efficacy of Flu (%)” value (zebrafish [1]; listed as Flu 1.6 μg/ml) was 3.486% and the “efficacy of Flu (%)” value (zebrafish [1]; listed as Flu 6.4 μg/ml) was 4.547%. The “efficacy of Flu (%)” value (zebrafish [1]; listed as Flu 25.6 μg/ml) was 8.629%, the “tyrosinase activity of zebrafish” value (tyrosinase; 1.6-25.6 μg/ml, compared with PTU35h treatment group) was “increase the tyrosinase activity of zebrafish in a dose-dependent manner” and the skin coloring (normal mice) was “can promote skin coloring”. For the same molecule, the “skin discoloration of unhaired back” value (C57BL/6 mice) was “can improve skin discoloration”, the “synthesis (melanin) of B16F10 cells” value (B16F10 cells) was “can promote” and the “melanin of normal human skin melanocytes” value [2] was “can promote”. The side effects [3] was “may cause side effects, such as insomnia, lethargy, suicide, neurological disorders” and the “effect on survival rate of zebrafish” value (zebrafish [4]; 100 μg/ml) was “significantly inhibited”.

For `NC(=S)Nc1ccccc1` [PTU, 1-phenyl-2-thiourea], the “melanin content in zebrafish” value (zebrafish [1]; [6]) was “decreased significantly” and the “tyrosinase activity of zebrafish” value (tyrosinase; [6]) was “decreased significantly”.

For `C=C1CC[C@H](O)C/C1=C/C=C1\CCC[C@]2(C)[C@@H]([C@H](C)CCCC(C)C)CC[C@@H]12` [VD3, vitamin D3], the “efficacy of VD3 (%)” value (zebrafish [1]; VD3 0.02 μg/ml, calculated using Formula 2) was 3.72%, the “efficacy of VD3 (%)” value (zebrafish [1]; VD3 0.08 μg/ml, calculated using Formula 2) was 5.41% and the “efficacy of VD3 (%)” value (zebrafish [1]; VD3 0.32 μg/ml, calculated using Formula 2) was 11.07%. For the same molecule, the “efficacy of VD3 (%)” value (zebrafish [1]; VD3 1.28 μg/ml, calculated using Formula 2) was 15.74%, the “effective rate (%)” value (zebrafish [1]; used alone 0.02 μg/ml) was 5.564% and the “effective rate (%)” value (zebrafish [1]; used alone 0.08 μg/ml) was 7.337%. The “effective rate (%)” value (zebrafish [1]; used alone 0.32 μg/ml) was 10.315%, the “effective rate (%)” value (zebrafish [1]; used alone 1.28 μg/ml) was 15.775% and the “effective rate (%)” value (zebrafish [1]; zebrafish, in vivo) was 3.346%. For the same molecule, the “efficacy of VD3 (%)” value (zebrafish [1]; zebrafish, in vivo) was 3.28%, the “melanin content in zebrafish” value (zebrafish [1]; zebrafish, in vivo) was “no significant difference” and the “tyrosinase activity of zebrafish” value (tyrosinase; [7]) was “no significant effect”. For the same molecule, the “effect on survival rate of zebrafish” value (zebrafish [4]; 5 μg/ml) was “significantly inhibited”.

For `C=C1/C(=C\C=C2/CCC[C@]3(C)[C@@H]([C@H](C)/C=C/[C@@H](O)C4CC4)CC[C@@H]23)C[C@@H](O)C[C@@H]1O` [calcipotriol], the “efficacy of Cal (%)” value (zebrafish [1]; Cal 0.005 μg/ml) was 3.42%, the “efficacy of Cal (%)” value (zebrafish [1]; Cal 0.02 μg/ml) was 3.85% and the “efficacy of Cal (%)” value (zebrafish [1]; Cal 0.08 μg/ml) was 5.50%. For the same molecule, the “efficacy of Cal (%)” value (zebrafish [1]; Cal 0.32 μg/ml) was 10.77%, the “efficacy of Cal (%)” value (zebrafish [1]; Cal 1.28 μg/ml) was 11.17% and the “effective rate (%)” value (zebrafish [1]; used alone 0.005 μg/ml) was 4.296%. For the same molecule, the “effective rate (%)” value (zebrafish [1]; used alone 0.02 μg/ml) was 5.509%, the “effective rate (%)” value (zebrafish [1]; used alone 0.08 μg/ml) was 6.773% and the “effective rate (%)” value (zebrafish [1]; used alone 0.32 μg/ml) was 10.214%. For the same molecule, the “effective rate (%)” value (zebrafish [1]; used alone 1.28 μg/ml) was 11.197%, the “tyrosinase activity of zebrafish” value (tyrosinase; [7]) was “no significant effect” and the “melanogenesis of normal melanocytes” value (normal melanocytes) was “can promote melanogenesis”. For the same molecule, the “effect on survival rate of zebrafish” value (zebrafish [4]; 5 μg/ml) was “significantly inhibited” and the IC50 (zebrafish [4]) was 3.5 µg/mL.

With `C=C1/C(=C\C=C2/CCC[C@]3(C)[C@@H]([C@H](C)CC[C@@H](O)C(C)C)CC[C@@H]23)C[C@@H](O)C[C@@H]1O` [tacalcitol] the “effect on survival rate of zebrafish” value (zebrafish [5]) was “significantly inhibited” and the IC50 (zebrafish [4]) was 4 µg/mL.
